The subject of data set [1] is PBMC. Description: Stimulation of immune response in human PBMC assessed as induction of IFNalpha production at 150 ug/ml after 24 hrs. Format: functional, cell-based.
The species named for data set [2] is Homo sapiens. The data set can be described thus: Stimulation of immune response in human pDC assessed as induction of MIP1alpha production at 150 ug/ml after 24 hrs. Format: functional.
Data set [3] deals with Mus musculus. The data set can be described thus: Stimulation of immune response in C57BL/6 mouse assessed as induction of serum chemokine KC production at 50 mg/kg, sc after 2 hrs by luminex multiplex assay. Format: functional, organism-based. More on the design: dose 50 mg/kg.
Data set [4] relates to PBMC. The data set can be described thus: Stimulation of immune response in human PBMC assessed as induction of IL10 production at 150 ug/ml after 24 hrs. Format: functional, cell-based.
The species entered for data set [5] is Homo sapiens. Description: Stimulation of immune response in human pDC assessed as induction of IFNalpha production at 150 ug/ml after 24 hrs. Format: functional.
Data set [6] concerns PBMC. The data set can be described thus: Stimulation of immune response in human PBMC assessed as induction of MCP1 production at 150 ug/ml after 24 hrs. Format: functional, cell-based.
Data set [7] concerns the target T1, Toll-like receptor 8 (Homo sapiens) (UniProt Q9NR97).
T1 sequence (whole entry): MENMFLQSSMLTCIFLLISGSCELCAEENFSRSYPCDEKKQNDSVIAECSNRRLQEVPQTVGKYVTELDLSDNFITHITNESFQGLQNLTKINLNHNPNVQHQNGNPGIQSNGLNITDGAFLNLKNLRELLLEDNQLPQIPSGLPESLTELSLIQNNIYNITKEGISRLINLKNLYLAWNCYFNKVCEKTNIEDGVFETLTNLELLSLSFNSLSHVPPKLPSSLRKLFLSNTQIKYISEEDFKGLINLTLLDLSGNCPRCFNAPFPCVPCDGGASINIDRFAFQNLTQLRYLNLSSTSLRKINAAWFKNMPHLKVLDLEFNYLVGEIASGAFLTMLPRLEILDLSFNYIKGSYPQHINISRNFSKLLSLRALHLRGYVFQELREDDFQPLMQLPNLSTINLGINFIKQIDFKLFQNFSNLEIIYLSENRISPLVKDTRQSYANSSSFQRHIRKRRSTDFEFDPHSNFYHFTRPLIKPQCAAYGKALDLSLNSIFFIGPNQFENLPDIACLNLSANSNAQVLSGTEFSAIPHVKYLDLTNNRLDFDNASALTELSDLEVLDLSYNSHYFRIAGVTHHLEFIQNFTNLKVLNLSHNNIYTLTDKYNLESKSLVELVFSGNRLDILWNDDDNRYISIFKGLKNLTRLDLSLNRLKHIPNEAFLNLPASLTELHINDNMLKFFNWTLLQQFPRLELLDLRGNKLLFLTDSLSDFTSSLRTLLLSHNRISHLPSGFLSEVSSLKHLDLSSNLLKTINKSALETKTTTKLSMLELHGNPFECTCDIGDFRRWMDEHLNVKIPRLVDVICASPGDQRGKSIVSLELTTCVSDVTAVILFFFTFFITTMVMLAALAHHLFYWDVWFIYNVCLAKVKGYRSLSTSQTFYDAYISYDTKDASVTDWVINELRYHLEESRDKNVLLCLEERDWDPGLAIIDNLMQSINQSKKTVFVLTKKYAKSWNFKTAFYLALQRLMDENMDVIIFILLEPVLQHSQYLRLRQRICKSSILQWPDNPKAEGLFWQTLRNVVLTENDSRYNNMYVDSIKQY
The data set can be described thus: Agonist activity at human TLR8 expressed in HEK293XL cells assessed as NF-kappaB activation after 18 hrs. Format: functional, cell-based.

Data set [8] relates to PBMC. Description: Stimulation of immune response in human PBMC assessed as induction of IL12 production at 150 ug/ml after 24 hrs. Format: functional, cell-based.
In data set [9] the test system is PBMC. The data set can be described thus: Stimulation of immune response in human PBMC assessed as induction of MIP1beta production at 150 ug/ml after 24 hrs. Format: functional, cell-based.
The subject of data set [10] is PBMC. The data set can be described thus: Stimulation of immune response in human PBMC assessed as induction of TNFalpha production at 150 ug/ml after 24 hrs. Format: functional, cell-based.
In data set [11] the test system is Mus musculus. The data set can be described thus: Stimulation of immune response in C57BL/6 mouse assessed as induction of serum IL10 production at 50 mg/kg, sc after 2 hrs by luminex multiplex assay. The class given is functional, organism-based. More on the design: dose 50 mg/kg.
Data set [12] concerns PBMC. Description: Stimulation of immune response in human PBMC assessed as induction of IL2R level at 150 ug/ml after 24 hrs. Format: functional, cell-based.
Data set [13] in a line: Stability in human serum assessed as full-length compound remaining after 10 mins by anion-exchange HPLC. Format: ADME, cell-free. To be noted: read-out: Stability.
Data set [14] relates to Mus musculus. Description: Stimulation of immune response in C57BL/6 mouse assessed as induction of serum IL12 production at 50 mg/kg, sc after 2 hrs by luminex multiplex assay. The class given is functional, organism-based. More on the design: dose 50 mg/kg.
Data set [15] deals with PBMC. Description: Stimulation of immune response in human PBMC assessed as induction of IL1-beta production at 150 ug/ml after 24 hrs. Format: functional, cell-based.
Data set [16] concerns PBMC. Description: Stimulation of immune response in human PBMC assessed as induction of RANTES production at 150 ug/ml after 24 hrs. The class given is functional, cell-based.
Data set [17] deals with PBMC. The data set can be described thus: Stimulation of immune response in human PBMC assessed as induction of IFN-gamma production at 150 ug/ml after 24 hrs. Format: functional, cell-based.
The species named for data set [18] is Homo sapiens. The data set can be described thus: Stimulation of immune response in human pDC assessed as induction of MIP1beta production at 150 ug/ml after 24 hrs. The class given is functional.
Data set [19] is filed under the species Homo sapiens. Description: Stimulation of immune response in human pDC assessed as induction of IFN-gamma production at 150 ug/ml after 24 hrs. Format: functional.
Data set [20] concerns the target T2, Toll-like receptor 7 (Homo sapiens) (UniProt Q9NYK1).
T2 sequence (whole entry): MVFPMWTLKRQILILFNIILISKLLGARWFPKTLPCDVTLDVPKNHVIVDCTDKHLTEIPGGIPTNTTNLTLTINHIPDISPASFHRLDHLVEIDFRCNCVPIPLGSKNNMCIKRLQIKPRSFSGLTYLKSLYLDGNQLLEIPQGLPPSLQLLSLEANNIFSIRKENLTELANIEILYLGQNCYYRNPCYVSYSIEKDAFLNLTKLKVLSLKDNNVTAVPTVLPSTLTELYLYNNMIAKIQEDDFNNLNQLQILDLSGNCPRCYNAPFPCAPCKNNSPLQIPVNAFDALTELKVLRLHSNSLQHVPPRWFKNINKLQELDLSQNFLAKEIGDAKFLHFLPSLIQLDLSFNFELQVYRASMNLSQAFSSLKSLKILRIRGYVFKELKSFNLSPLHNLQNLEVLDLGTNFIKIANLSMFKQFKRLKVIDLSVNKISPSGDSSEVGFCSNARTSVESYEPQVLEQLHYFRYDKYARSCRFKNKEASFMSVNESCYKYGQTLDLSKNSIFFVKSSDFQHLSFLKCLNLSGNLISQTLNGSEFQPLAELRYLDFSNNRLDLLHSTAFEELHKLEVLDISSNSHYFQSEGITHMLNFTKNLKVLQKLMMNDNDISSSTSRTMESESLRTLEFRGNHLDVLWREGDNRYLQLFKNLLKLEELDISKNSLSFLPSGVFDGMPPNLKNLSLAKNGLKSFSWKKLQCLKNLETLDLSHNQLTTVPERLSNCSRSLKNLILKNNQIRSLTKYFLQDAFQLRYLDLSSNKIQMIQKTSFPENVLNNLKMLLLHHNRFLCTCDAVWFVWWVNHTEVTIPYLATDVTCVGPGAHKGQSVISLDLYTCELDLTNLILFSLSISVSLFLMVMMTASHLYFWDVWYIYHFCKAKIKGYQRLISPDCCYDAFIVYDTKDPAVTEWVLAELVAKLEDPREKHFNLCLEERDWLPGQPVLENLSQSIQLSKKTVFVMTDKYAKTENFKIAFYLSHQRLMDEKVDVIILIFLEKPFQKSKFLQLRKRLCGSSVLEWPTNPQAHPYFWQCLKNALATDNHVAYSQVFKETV
The data set can be described thus: Agonist activity at human TLR7 expressed in HEK293XL cells assessed as NF-kappaB activation after 18 hrs. The class given is functional, cell-based.

The subject of data set [21] is PBMC. Description: Stimulation of immune response in human PBMC assessed as induction of MIP1alpha production at 150 ug/ml after 24 hrs. The class given is functional, cell-based.
Data set [22] is filed under the species Homo sapiens. The data set can be described thus: Stimulation of immune response in human pDC assessed as induction of TNFalpha production at 150 ug/ml after 24 hrs. The class given is functional.
The test system of data set [23] is PBMC. Description: Stimulation of immune response in human PBMC assessed as induction of IL8 production at 150 ug/ml after 24 hrs. Format: functional, cell-based.
For data set [24], the species on record is Homo sapiens. The data set can be described thus: Stimulation of immune response in human pDC assessed as induction of IL12 production at 150 ug/ml after 24 hrs. Format: functional.

Activity calls are given as the source filed them. The rule behind the calls is not given here.

Consider `Nc1ccn([C@@H]2O[C@H](COP(=O)(S)O[C@H]3[C@@H](O)[C@H](n4ccc(=O)[nH]c4=O)O[C@@H]3COP(=O)(S)O[C@H]3[C@H](O)[C@H](n4cnc5c(=O)[nH]c(N)nc54)O[C@@H]3COP(=O)(S)O[C@H]3[C@H](O)[C@H](n4ccc(N)nc4=O)O[C@@H]3COP(=O)(S)O[C@H]3[C@@H](O)[C@H](n4ccc(=O)[nH]c4=O)O[C@@H]3COP(=O)(S)O[C@H]3[C@@H](O)[C@H](n4ccc(=O)[nH]c4=O)O[C@@H]3COP(=O)(S)O[C@H]3[C@@H](O)[C@H](n4cnc5c(=O)[nH]c(N)nc54)O[C@@H]3COP(=O)(S)O[C@H]3[C@@H](O)[C@H](n4ccc(=O)[nH]c4=O)O[C@@H]3COP(=O)(S)O[C@H]3[C@@H](O)[C@H](n4cnc5c(=O)[nH]c(N)nc54)O[C@@H]3COP(=O)(S)OCC(O)COP(=O)(S)O[C@H]3[C@@H](O)[C@H](n4cnc5c(=O)[nH]c(N)nc54)O[C@@H]3COP(=O)(S)O[C@H]3[C@@H](O)[C@H](n4ccc(=O)[nH]c4=O)O[C@@H]3COP(=O)(S)O[C@H]3[C@@H](O)[C@H](n4cnc5c(=O)[nH]c(N)nc54)O[C@@H]3COP(=O)(S)O[C@H]3[C@@H](O)[C@H](n4ccc(=O)[nH]c4=O)O[C@@H]3COP(=O)(S)O[C@H]3[C@@H](O)[C@H](n4ccc(=O)[nH]c4=O)O[C@@H]3COP(=O)(S)O[C@H]3[C@H](O)[C@H](n4ccc(N)nc4=O)O[C@@H]3COP(=O)(S)O[C@H]3[C@@H](O)[C@H](n4cnc5c(=O)[nH]c(N)nc54)O[C@@H]3COP(=O)(S)O[C@H]3[C@@H](O)[C@H](n4ccc(=O)[nH]c4=O)O[C@@H]3COP(=O)(S)O[C@H]3[C@H](O)[C@H](n4ccc(N)nc4=O)O[C@@H]3COP(=O)(S)O[C@H]3[C@@H](O)[C@H](n4cnc5c(=O)[nH]c(N)nc54)O[C@@H]3COP(=O)(S)O[C@H]3[C@@H](O)[C@H](n4ccc(=O)[nH]c4=O)O[C@@H]3CO)[C@@H](OP(=O)(S)OC[C@H]3O[C@@H](n4cnc5c(=O)[nH]c(N)nc54)[C@H](O)[C@@H]3OP(=O)(S)OC[C@H]3O[C@@H](n4ccc(=O)[nH]c4=O)[C@H](O)[C@@H]3OP(=O)(O)S)[C@@H]2O)c(=O)n1` (some centres undefined), for which the outcome with PBMC [1], in the data set filed under Homo sapiens [2], in the data set on Mus musculus [3], in the data set with PBMC [4], in the data set listed under Homo sapiens [5] and in the data set with PBMC [6] was Active. For the same compound, the result in the data set on PBMC [8], in the data set on PBMC [9], with PBMC [10], with Mus musculus [11], in the data set on PBMC [12] and with Mus musculus [14] was Active. Moreover, the result with PBMC [15], in the data set on PBMC [16], with PBMC [17], in the data set listed under Homo sapiens [18], in the data set filed under Homo sapiens [19] and with PBMC [21] was Active. Moreover, the result in the data set listed under Homo sapiens [22], in the data set with PBMC [23] and in the data set filed under Homo sapiens [24] was Active. Besides, the Activity entry in data set [7] and in [20] was “Dose-dependent effect” each time. Further, the remaining at 10 min in data set [13] stood at 76%.

Source of the values: ChEMBL document CHEMBL1151840, “Synthetic oligoribonucleotides containing arabinonucleotides act as agonists of TLR7 and 8” (Bioorg Med Chem Lett, 2009).
